Where no end group is shown, it is not given here.
Experiments:
[1] = biological target: T1, human phospholipase A2, content of tears (P14555) (Homo sapiens, UniProt P14555); test: Activity of human tear phospholipase A2 towards C28-O-PHPM in the presence of peptide (pyrene monomer fluorescence); format: biochemical; details: 2 nM enzyme, 40 nM or 80 nM peptide; FIG. 2
T1 construct: Reaction mixture contained 2 nM of phospholipase of human tears; from tissue; host or cells: human tear fluid
T1 sequence (P14555 21-144): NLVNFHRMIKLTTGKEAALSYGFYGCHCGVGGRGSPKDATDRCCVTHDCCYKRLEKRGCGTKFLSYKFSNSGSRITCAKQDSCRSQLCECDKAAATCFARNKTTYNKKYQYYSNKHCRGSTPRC
Description: Activity of secretory phospholipase A2 (Apis mellifica) of class III towards C28—O—PHPM was measured in the presence of peptide KMYFNLI (SEQ ID NO:1). Reaction mixture contained 2 nM of phospholipase A2, 2 nM or 4 nM of the peptide and 1.25 μM C28—O—PHPM (1-octacosanyl-2-(6-pyren-1-yl)hexanoyl-sn-glycero-3-phosphatidylmethanol) in 2.0 ml of 5 mM HEPES, 0.1 mM EDTA, 1 mM CaCl2, pH 7.4 at 37° C. with stirring. The assay was performed with or without preincubation step. The enzymatic reaction was followed by measuring the pyrene monomer fluorescence intensity at 400 nm using a spectrofluorometer. Excitation wavelength was 343 nm and the excitation and emission slits were 10 nm.
Activity of human phospholipase A2, content of tears (P14555), was measured in the presence of peptide AALSYGFYG (SEQ ID NO:68). Reaction mixture contained 2 nM of phospholipase of human tears, 40 nM or 80 nM of the peptide and 1.25 μM C28—O—PHPM (1-octacosanyl-2-(6-pyren-1-yl)hexanoyl-sn-glycero-3-phosphatidylmethanol) in 2.0 ml of 5 mM HEPES, 0.1 mM EDTA, 1 mM CaCl2, pH 7.4 at 37° C. with stirring. The assay was performed with or without preincubation step. The enzymatic reaction was followed as described in Example 2.

[2] = biological target: secretory phospholipase A2 (Apis mellifica) of class III (Apis mellifera, UniProt P00630)
Sequence of secretory phospholipase A2 (Apis mellifica) of class III (P00630 34-167 limits assumed): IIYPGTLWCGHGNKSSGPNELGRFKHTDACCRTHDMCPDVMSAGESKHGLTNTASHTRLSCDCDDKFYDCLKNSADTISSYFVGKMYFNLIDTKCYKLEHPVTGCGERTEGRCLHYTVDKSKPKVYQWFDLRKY

Row | Substance | inhibition of tear fluid PLA2 activity [1] | inhibition of bee venom PLA2 enzyme [2] | peptide concentration at which inhibition was observed [2]
1 | AALSYGFYG (not fully specified (C-terminus); listed as Homo sapiens) [synthetic peptide corresponding to residues 17-25 of human secretory PLA2 present in tear fluid] | inhibited |  | 
2 | KMYFNLI |  | complete inhibition | 2 nM

— US20130079493A1, “Method for prepairing peptide inhibitors of a lipid-activated enzyme and peptides produced by same” (ESTAJA OY, priority 2010, published 2013)
